A short description of data set [1]: Thermal stability: FTIR spectra after heating for 30 minutes. Format: physicochemical. As for the experimental part:
Infrared (IR) spectroscopy was used to quantify samples. Nicolet 6700 FT-IR spectrophotometer was used to measure absorbance or transmittance value of samples. All samples were finely ground and mixed with fused KBr to form pellets in the measurements. Typical parameters included: scan range of 400-4000 cm^−1; resolution 4.00 cm^−1; and the number of scans were 32.
The FTIR spectra of the 0.5000 g calcium montmorillonite chelated with 0.2500 g of LAA heated at 100° C., 120° C., 140° C., 160° C., 180° C. and 200° C. for 30 minutes are shown in FIG. 10. As reference, the FTIR spectra of LAA at room temperature and after heating to 90, 120, 140, 160, 180 and 200° C. for 30 minutes are also shown in FIG. 10.
Further at 140° C., the structure of LAA is altered as the carbonyl stretch at 1750 cm^−1 was broader and the fingerprint region was changed.
First, 0.1000 g samples of the chelated clays were prepared as described in previous examples. Then to determine the thermal stability, 0.1000 g samples of 0.5000 g calcium montmorillonite chelated with 0.0500 g, 0.1000 g, 0.2500 g and 0.5000 g of LAA, were heated in an oven at 90° C. for 30 minutes. Pellets of the cooled samples were prepared with fused KBr and FTIR spectra of these samples were obtained. Reference spectra of the calcium montmorillonite chelated clays before heating were also obtained for comparison. […]

For data set [2] the following is noted: in blood plasma; cited from earlier work.

For `O=C1O[C@H]([C@@H](O)CO)C(O)=C1O` [LAA, L-ascorbic acid], the “structure (FTIR) after heating at 140° C.” value in data set [1] (140° C., 30 minutes) was “altered”. Further, the “change of structure (FTIR) as the temperature is increased” value in data set [1] (heated 30 minutes at 90/100 to 200° C.) was “changes gradually as the temperature is increased until it is completely destroyed”. In addition, the biological half-life entry in data set [2] is given as “about 30 minutes”.

(Values after patent US20110184006A1, “METHOD AND COMPOSITION FOR THERMALLY STABILIZING VITAMIN C WITHIN NANO LAYERS OF MONTMORILLONITE CLAY” (NATIONAL RESEARCH COUNCIL OF SRI LANKA, priority 2010, published 2011).)
